From patent US20150148393A1, “COSMETIC AND/OR PHARMACEUTICAL COMPOSITION FOR THE TREATMENT OF SKIN INFLAMMATION AND RELATED SYNDROMES” (GENERAL TOPICS S.R.L., priority 2012, published 2015)

Test system: TNF alpha release from human keratinocytes
Assay: Inhibition of SLS-induced TNF alpha release from human keratinocytes
Assay type: cell-based
Details: release induced by sodium lauryl sulphate (SLS), after a 24 hour-period
Description: A comparison was made between the inhibition of TNF alpha release from human keratinocytes as induced by contact with sodium lauryl sulphate (SLS) and obtained with the use of methyl sulfonyl methane (MSM), and that obtained with the use of hydrocortisone, a compound known to be active in inhibiting the release of TNF alpha. […] Therefore, the studies performed pointed out that MSM can decrease both the release of TNF alpha (this cytokine is expressed by keratinocytes in an inflammatory process of the skin) and the overall intensity of erythema even when TNF alpha is over-expressed by ultraviolet radiations. […] Moreover, it should be noted that TNF alpha can activate TRPV receptors and, therefore, a decrease in the production thereof can prevent it from exerting an agonist effect on the receptors themselves.

SMILES	percentage decrease of TNF alpha release [%]
C[C@]12CCC(=O)C=C1CC[C@@H]1[C@@H]2[C@@H](O)C[C@@]2(C)[C@H]1CC[C@]2(O)C(=O)CO [hydrocortisone]	5.25
CS(C)(=O)=O [MSM, methyl sulfonyl methane]	12.33
